# Measurements published in ChEMBL document CHEMBL1201862, “PubChem BioAssay data set” (2004).
#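 Exposure lasted 48 hours, with cells grown in 96-well plates and compounds tested at five concentrations. Abbreviation: GI50, concentration required for 50% inhibition of growth.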 Calls of active or inactive are those of the source. Cut-off read from the data, not from the text of the source: active = GI50 up to about 1.1 µM and inactive = higher.
# What was measured:
# Experiment in all cases: inhibition of tumour cell growth, NCI panel, 48 h
# EKVX = tested on: EKVX
# MDA-MB-435 = tested on: MDA-MB-435
# SR = tested on: SR
# SNB-19 = tested on: SNB-19
# SF-539 = tested on: SF-539
# MCF7 = tested on: MCF7
# RPMI-8226 = tested on: RPMI-8226
# SF-295 = tested on: SF-295
# 786-0 = tested on: 786-0
# NCI-H226 = tested on: NCI-H226
# HCT-15 = tested on: HCT-15
# K562 = tested on: K562
# SW-620 = tested on: SW-620
# ACHN = tested on: ACHN
# LOX IMVI = tested on: LOX IMVI
# CAKI-1 = tested on: CAKI-1
# OVCAR-8 = tested on: OVCAR-8
# BT-549 = tested on: BT-549
# KM12 = tested on: KM12
# SNB-75 = tested on: SNB-75
# HOP-92 = tested on: HOP-92
# T47D = tested on: T47D
# UACC-257 = tested on: UACC-257
# U-251 = tested on: U-251
# UACC-62 = tested on: UACC-62
# SK-MEL-2 = tested on: SK-MEL-2
# MDA-MB-231 = tested on: MDA-MB-231
# HCC 2998 = tested on: HCC 2998
# A498 = tested on: A498
# RXF 393 = tested on: RXF 393
# CCRF-CEM = tested on: CCRF-CEM
# NCI-H23 = tested on: NCI-H23
# A549 = tested on: A549
# HOP-62 = tested on: HOP-62
# MOLT-4 = tested on: MOLT-4
# SK-MEL-5 = tested on: SK-MEL-5
# PC-3 = tested on: PC-3
# OVCAR-5 = tested on: OVCAR-5
# Hs-578T = tested on: Hs-578T
# HL-60 = tested on: HL-60
# NCI-H522 = tested on: NCI-H522
# UO-31 = tested on: UO-31
# HCT-116 = tested on: HCT-116
# TK-10 = tested on: TK-10
# DU-145 = tested on: DU-145
# SN12C = tested on: SN12C
# SF-268 = tested on: SF-268
# IGROV-1 = tested on: IGROV-1
# NCI/ADR-RES = tested on: NCI/ADR-RES
# SK-MEL-28 = tested on: SK-MEL-28
# M14 = tested on: M14
# NCI-H460 = tested on: NCI-H460
# COLO 205 = tested on: COLO 205
# OVCAR-3 = tested on: OVCAR-3
# OVCAR-4 = tested on: OVCAR-4
# HT-29 = tested on: HT-29
# MDA-N = tested on: MDA-N
# SK-OV-3 = tested on: SK-OV-3
# Malme-3M = tested on: Malme-3M
compound,measurement,setting,value
C=C1C[C@@H]2O[C@H]3[C@H]4[C@@H](C[C@@H](C)[C@@H](OC(C)=O)[C@H]42)[C@@H](C)CO[C@@]3(C)[C@H](OC(=O)CCCCCCC)C[C@H]1O,GI50,EKVX,13.9 µM (inactive)
same,GI50,MDA-MB-435,18.7 µM (inactive)
same,GI50,SR,15.8 µM (inactive)
same,GI50,SNB-19,16.7 µM (inactive)
same,GI50,SF-539,23.4 µM (inactive)
same,GI50,MCF7,21.4 µM (inactive)
same,GI50,RPMI-8226,16.1 µM (inactive)
same,GI50,SF-295,21.7 µM (inactive)
same,GI50,786-0,15.5 µM (inactive)
same,GI50,NCI-H226,10.5 µM (inactive)
same,GI50,HCT-15,15.8 µM
same,GI50,K562,22.9 µM (inactive)
same,GI50,SW-620,21.4 µM (inactive)
same,GI50,ACHN,20.7 µM (inactive)
same,GI50,LOX IMVI,13.2 µM (inactive)
same,GI50,CAKI-1,14.8 µM (inactive)
same,GI50,OVCAR-8,16.2 µM (inactive)
same,GI50,BT-549,17.2 µM (inactive)
same,GI50,KM12,16.7 µM (inactive)
same,GI50,SNB-75,16.7 µM (inactive)
same,GI50,HOP-92,15.2 µM (inactive)
same,GI50,T47D,11.1 µM (inactive)
same,GI50,UACC-257,16.7 µM (inactive)
same,GI50,U-251,16.9 µM (inactive)
same,GI50,UACC-62,16.3 µM (inactive)
same,GI50,SK-MEL-2,20.3 µM (inactive)
same,GI50,MDA-MB-231,13.8 µM (inactive)
same,GI50,HCC 2998,16.9 µM (inactive)
same,GI50,A498,16.2 µM (inactive)
same,GI50,RXF 393,18.9 µM (inactive)
same,GI50,CCRF-CEM,14.3 µM (inactive)
same,GI50,NCI-H23,19.8 µM (inactive)
same,GI50,A549,18.2 µM (inactive)
same,GI50,HOP-62,17.4 µM (inactive)
same,GI50,MOLT-4,22.9 µM (inactive)
same,GI50,SK-MEL-5,15.5 µM (inactive)
same,GI50,PC-3,15.3 µM (inactive)
same,GI50,OVCAR-5,17.5 µM (inactive)
same,GI50,Hs-578T,14.4 µM (inactive)
same,GI50,HL-60,12.4 µM (inactive)
same,GI50,NCI-H522,16.4 µM (inactive)
same,GI50,UO-31,15.8 µM (inactive)
same,GI50,HCT-116,16.5 µM (inactive)
same,GI50,TK-10,17.2 µM (inactive)
same,GI50,DU-145,14.9 µM (inactive)
same,GI50,SN12C,17.3 µM (inactive)
same,GI50,SF-268,16.1 µM (inactive)
same,GI50,IGROV-1,17.5 µM (inactive)
same,GI50,NCI/ADR-RES,15.9 µM (inactive)
same,GI50,SK-MEL-28,17.4 µM (inactive)
same,GI50,M14,20 µM (inactive)
same,GI50,NCI-H460,16.1 µM (inactive)
same,GI50,COLO 205,16.4 µM (inactive)
same,GI50,OVCAR-3,22.5 µM (inactive)
same,GI50,OVCAR-4,12.8 µM (inactive)
same,GI50,HT-29,20.1 µM (inactive)
same,GI50,MDA-N,16.7 µM (inactive)
O=C(COc1ccc(OCC(=O)N2C(=O)CN(c3ccccc3)C2=S)cc1)N1C(=O)CN(c2ccccc2)C1=S,GI50,EKVX,> 53.6 µM (inactive)
same,GI50,MDA-MB-435,> 55.3 µM (inactive)
same,GI50,SR,> 25 µM (inactive)
same,GI50,SNB-19,> 48.4 µM (inactive)
same,GI50,SF-539,> 100 µM (inactive)
same,GI50,MCF7,> 54.3 µM (inactive)
same,GI50,RPMI-8226,> 100 µM (inactive)
same,GI50,SF-295,> 53 µM (inactive)
same,GI50,786-0,> 57 µM (inactive)
same,GI50,NCI-H226,> 100 µM (inactive)
same,GI50,HCT-15,> 54.1 µM
same,GI50,K562,> 100 µM (inactive)
same,GI50,SW-620,> 100 µM (inactive)
same,GI50,ACHN,> 53.3 µM (inactive)
same,GI50,LOX IMVI,> 25 µM (inactive)
same,GI50,CAKI-1,> 57.7 µM (inactive)
same,GI50,OVCAR-8,> 55.2 µM (inactive)
same,GI50,BT-549,> 61.4 µM (inactive)
same,GI50,KM12,> 51.5 µM (inactive)
same,GI50,SNB-75,> 25 µM (inactive)
same,GI50,HOP-92,> 53.2 µM (inactive)
same,GI50,T47D,> 58.3 µM (inactive)
same,GI50,UACC-257,> 54.7 µM (inactive)
same,GI50,U-251,> 51.6 µM (inactive)
same,GI50,UACC-62,> 56.1 µM (inactive)
same,GI50,SK-MEL-2,> 51.4 µM (inactive)
same,GI50,MDA-MB-231,> 50.1 µM (inactive)
same,GI50,HCC 2998,> 58.5 µM (inactive)
same,GI50,A498,> 56.5 µM (inactive)
same,GI50,RXF 393,55.8 µM (inactive)
same,GI50,NCI-H23,> 56.9 µM (inactive)
same,GI50,A549,> 56.1 µM (inactive)
same,GI50,HOP-62,> 53.2 µM (inactive)
same,GI50,MOLT-4,> 25 µM (inactive)
same,GI50,SK-MEL-5,> 25 µM (inactive)
same,GI50,PC-3,> 25 µM (inactive)
same,GI50,OVCAR-5,> 50.9 µM (inactive)
same,GI50,Hs-578T,> 64.4 µM (inactive)
same,GI50,HL-60,> 100 µM (inactive)
same,GI50,NCI-H522,> 61.2 µM (inactive)
same,GI50,UO-31,> 56.6 µM (inactive)
same,GI50,HCT-116,> 61.4 µM (inactive)
same,GI50,TK-10,> 54.7 µM (inactive)
same,GI50,DU-145,> 61 µM (inactive)
same,GI50,SN12C,> 59.2 µM (inactive)
same,GI50,SF-268,> 59.4 µM (inactive)
same,GI50,IGROV-1,> 25 µM (inactive)
same,GI50,SK-OV-3,> 54.3 µM (inactive)
same,GI50,NCI/ADR-RES,> 55.7 µM (inactive)
same,GI50,SK-MEL-28,> 100 µM (inactive)
same,GI50,M14,> 57.9 µM (inactive)
same,GI50,NCI-H460,> 57.7 µM (inactive)
same,GI50,COLO 205,> 100 µM (inactive)
same,GI50,OVCAR-3,49.3 µM (inactive)
same,GI50,OVCAR-4,31.5 µM (inactive)
same,GI50,HT-29,> 56.9 µM (inactive)
same,GI50,Malme-3M,> 25 µM (inactive)
same,GI50,MDA-N,> 63.1 µM (inactive)
